Holding throughout (assay type): in vivo
For assay [1], the system named is Spodoptera frugiperda. Kind of assay: Spodoptera frugiperda spray test. The settings on record: 168 h, after 7 days, larvae on maize leaf sections. The method in brief: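 Percent larval kill read at day 7 on Zea mays leaf pieces that were spray-treated and, after drying, infested. Spray preparations made by dilution with emulsifier-containing water (1000 ppm).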

The subject of assay [2] is Culex quinquefasciatus strain P00. Kind of assay: Culex quinquefasciatus test (CULXFA surface treatment & contact assay). The settings on record: surface concentration 4 mg/m^2, exposure 30 minutes, 24 hours after contact, read-out: efficacy (mortality). The protocol: Culex Quinquefasciatus Test (CULXFA Surface Treatment & Contact Assay)
(§1) Solvent: Aceton+2000 ppm rapeseed oil methyl ester (RME)
In order to produce a sufficient, active ingredient containing solution it is necessary to solve the test compound in the solvent-mix (acetone at 2 mg/ml/RME 2000 ppm). This solution is pipetted onto a glazed tile and after evaporation of the acetone, adult mosquitoes of the species Culex quinquefasciatus strain P00 are placed onto the dried surface. The exposure time is 30 minutes.
(§2) Mortality in percent (%) is determined 24 hours after contact of the insects to the treated surface. 100% mortality means that all tested insects are dead, whereas 0% means that no insect died.

For assay [3], the system named is Boophilus microplus. The experiment in a line: Boophilus microplus injection test. Conditions: Rhipicephalus microplus, 168 h; 20 μg/animal injected into the abdomen; adult engorged female ticks; egg deposition after 7 days; read-out: efficacy (infertile eggs). The method in brief:
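Efficacy, from 0% (all eggs fertile) to 100% (all infertile), was scored on eggs laid by five engorged adult females. Each female was injected intra-abdominally with 1 μl of compound solution in DMSO. Fertile egg laying was checked at 7 days, with uncertain eggs kept until hatching at about 42 days.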

Assay [4] concerns Diabrotica balteata. Kind of assay: Diabrotica balteata spray test. Conditions: Diabrotica balteata, in Triticum aestivum, 168 h, after 7 days, larvae on wheat seeds, read-out: efficacy (seedlings grown up); for pest or weed control at 80 µg/disc, 250 g/ha: 80 μg/well (=250 g/ha); for pest or weed control at 160 µg/disc, 500 g/ha: 160 μg/well (=500 g/ha). The method in brief:
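Scoring at 7 days compares seedling growth with untreated, uninfested controls (100% = equal growth, 0% = none grown). Wheat seedlings germinated 1 day on agar, 5 per well, received a spray of test solution made in 1000 ppm emulsifier water. Each unit then received 10–20 beetle larvae.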

The test system of assay [5] is Ctenocephalides felis. Kind of assay: Ctenocephalides felis oral test. Conditions: 48 h, 100 ppm in cattle blood, after 2 days, adult unfed cat fleas. The method in brief:
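Compound dissolved in DMSO and diluted in cattle blood to test concentration, offered to ~20 unfed adult fleas via a parafilm-sealed blood chamber held at 37° C (fleas at room temperature). Kill recorded at 2 days as % mortality.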

Assay [6] has as its system Aedes aegypti strain MONHEIM. Kind of assay: Aedes aegypti test (AEDSAE surface treatment & contact assay). The settings on record: surface concentration 20 mg/m^2, exposure 30 minutes, 24 hours after contact, read-out: efficacy (mortality). Here is the method: Aedes Aegypti Test (AEDSAE Surface Treatment & Contact Assay)
as §1
In order to produce a sufficient, active ingredient containing solution it is necessary to solve the test compound in the solvent-mix (acetone at 2 mg/ml/RME 2000 ppm). This solution is pipetted onto a glazed tile and after evaporation of the acetone, adult mosquitoes of the species Aedes aegypti strain MONHEIM are placed onto the dried surface. The exposure time is 30 minutes.
as §2

For assay [7], the system named is Nezara viridula. The experiment in a line: Nezara viridula spray test. The settings on record: 96 h, after 4 days, larvae on barley plants. In outline:
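Mortality (%) was assessed at day 4, from 0% (no bugs dead) to 100% (all dead). The spray solution was compound diluted to test concentration in water with 1000 ppm emulsifier and applied to barley carrying southern green stink bug larvae.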

Assay [8] concerns Myzus persicae. Kind of assay: Myzus persicae oral test. The settings on record: 120 h, 4 ppm, after 5 days. Here is the method:
Solvent: 100 parts by weight acetone
To produce a suitable preparation of active compound, 1 part by weight of active compound is mixed with the stated amount of solvent, and the concentrate is diluted with water to the desired concentration.
50 μl compound solution is filled in microtiter plates and 150 μl IPL41 insect medium (33%+15% sugar) is added to obtain a total volume of 200 μl per well. Afterwards the plates are sealed with parafilm through which a mixed population of the green peach aphid (Myzus persicae) can suck on the compound preparation.
(§3) After 5 days mortality in % is determined. 100% means all aphids have been killed and 0% means none of the aphids have been killed.

The test system of assay [9] is Ctenocephalides felis. The experiment in a line: Ctenocephalides felis in-vitro contact test, adult cat flea. The settings on record: 5 μg/cm^2 (=500 g/ha), after 48 hours, adult cat fleas, read-out: efficacy (fleas dead or moribund). The protocol:
Ctenocephalides Felis—In-Vitro Contact Tests Adult Cat Flea 9 mg compound is solved in 1 ml acetone and diluted with acetone to the desired concentration. 250 μl of the test solution is filled in 25 ml glass test tubes and homogeneously distributed on the inner walls by rotation and tilting on a shaking device (2 h at 30 rpm). With a compound concentration of 900 ppm, an inner surface of 44.7 cm^2 and a homogeneous distribution, a dose of 5 μg/cm^2 is achieved. After the solvent has evaporated, each test tube is filled with 5-10 adult cat fleas (Ctenocephalides felis), closed with a perforated lid and incubated in a lying position at room temperature and relative humidity. After 48 hours efficacy is determined. The fleas are patted on the ground of the tubes and are incubated on a heating plate at 45-50° C. for at most 5 minutes. Immotile or uncoordinated moving fleas, which are not able to escape the heat by climbing upwards, are marked as dead or moribund. […] An efficacy of 100% means all fleas are dead or moribund; 0% means no fleas are dead or moribund.

In assay [10] the test system is Myzus persicae. The experiment in a line: Myzus persicae spray test. Conditions: foliar, 120 h, after 5 days, Chinese cabbage leaf disks. The protocol:
Myzus persicae—Spray Test
To produce a suitable preparation of active compound, 1 part by weight of active compound is mixed with the stated amount of solvents and is diluted with water, containing an emulsifier concentration of 1000 ppm, to the desired concentration. Further test concentrations are prepared by dilution with emulsifier containing water.
Chinese cabbage (Brassica pekinensis) leaf disks infected with all instars of the green peach aphid (Myzus persicae), are sprayed with a preparation of the active ingredient of the desired concentration.
as §3

A word on the mortality: it is the share of the test organisms that died.

`C[C@H](NC(=O)c1cc(F)c(F)c(F)c1)c1ncnn1-c1ccc(C#N)cn1` [Example I-020] registered a mortality at 500 g/ha in assay [1] of 100%. Besides, the mortality at 4 mg/m2 in assay [2] lay in the range of 90 to 100%. Besides, the pest or weed control at 0.02 mg in assay [3] was 100%. Also, in [4], the pest or weed control at 80 µg/disc, 250 g/ha came to 100% and the pest or weed control at 160 µg/disc, 500 g/ha turned out to be 100%. Moreover, the mortality at 100 ppm in assay [5] came out at 100%. The mortality at 20 mg/m2 in assay [6] lay within 90 to 100%.
`C[C@H](NC(=O)c1cc(Cl)cc(C(F)(F)F)c1)c1ncnn1-c1ccc(C(=O)NC2CC2)cn1` [Example I-061]: in [1], the mortality at 100 g/ha came out at 100% and the mortality at 500 g/ha turned out to be 100%. This compound showed a mortality at 500 g/ha in [7] of 100%. In addition, the pest or weed control at 0.02 mg in [3] stood at 100%. Also, in assay [4], the pest or weed control at 80 µg/disc, 250 g/ha worked out at 100% and the pest or weed control at 160 µg/disc, 500 g/ha was 100%. The mortality at 100 ppm in assay [5] is 100%. Further, the mortality at 4 ppm in [8] was 100%. In assay [9], the pest or weed control at 5 µg/cm2 was 100%.
Consider `CC[C@H](NC(=O)c1cc(Cl)cc(OC(F)(F)F)c1)c1ncnn1-c1ccc([N+](=O)[O-])cn1` [Example I-071], for which, in [9], the pest or weed control at 5 µg/cm2 is 80%.
In assay [1], `C[C@H](NC(=O)c1cc(Cl)cc(C(F)(F)F)c1)c1ncnn1-c1ccc(NC(=O)C2(C#N)CC2)cn1` [Example I-076] came in with a mortality at 100 g/ha of 100% and a mortality at 500 g/ha of 100%. The compound further displayed a mortality at 500 g/ha in assay [10] of 100%. The pest or weed control at 0.02 mg in assay [3] worked out at 100%. Further, in assay [4], the pest or weed control at 80 µg/disc, 250 g/ha was 100% and the pest or weed control at 160 µg/disc, 500 g/ha was 100%. Besides, the mortality at 100 ppm in assay [5] was determined as 90%. The mortality at 4 ppm in assay [8] is 100%.
For `COc1cc(Cl)cc(C(=O)N[C@@H](C)c2ncnn2-c2ccc(C#N)cn2)c1` [Example I-079], the mortality at 500 g/ha in assay [1] was 100%; in [7], 90%. Besides, the mortality at 100 g/ha in [7] amounted to 90%. For the same compound, the pest or weed control at 80 µg/disc, 250 g/ha in [4] is 100%. In addition, in assay [5], the mortality at 100 ppm was 100%. The pest or weed control at 5 µg/cm2 in assay [9] came to 90%.
Take `C[C@H](NC(=O)c1cc(Br)cc(C(F)(F)F)c1)c1ncnn1-c1ccc(C#N)cn1` [Example I-081]: in assay [1], the mortality at 100 g/ha was 100% and the mortality at 500 g/ha stood at 100%. In assay [7], the mortality at 100 g/ha stood at 90% and the mortality at 500 g/ha stood at 100%. Besides, in assay [4], the pest or weed control at 80 µg/disc, 250 g/ha was 100% and the pest or weed control at 160 µg/disc, 500 g/ha was found to be 100%. The compound also yielded a mortality at 4 ppm in [8] of 100%. Moreover, the pest or weed control at 5 µg/cm2 in [9] is 90%.
As to `C[C@H](NC(=O)c1cc(Cl)cc(C(F)(F)F)c1)c1ncnn1-c1nccs1` [Example I-082, 3-chloro-N-{(1S)-1-[1-(1,3-thiazol-2-yl)-1H-1,2,4-triazol-5-yl]ethyl}-5-(trifluoromethyl)benzamide], in assay [1], the mortality at 100 g/ha amounted to 100% and the mortality at 500 g/ha worked out at 100%. Also, the mortality at 500 g/ha in [7] was 100%. In assay [4], the pest or weed control at 80 µg/disc, 250 g/ha was determined as 100% and the pest or weed control at 160 µg/disc, 500 g/ha amounted to 100%. Besides, the pest or weed control at 5 µg/cm2 in assay [9] turned out to be 90%.
For `C[C@H](NC(=O)c1cc(Cl)cc(C(F)(F)F)c1)c1ncnn1-c1ncc(Br)s1` [Example I-083, N-{(1S)-1-[1-(5-bromo-1,3-thiazol-2-yl)-1H-1,2,4-triazol-5-yl]ethyl}-3-chloro-5-(trifluoromethyl)benzamide], in [1], the mortality at 100 g/ha worked out at 100% and the mortality at 500 g/ha was 100%. Further, in [4], the pest or weed control at 80 µg/disc, 250 g/ha was found to be 100% and the pest or weed control at 160 µg/disc, 500 g/ha stood at 100%. This compound also registered a mortality at 100 ppm in assay [5] of 100%. In [9], the pest or weed control at 5 µg/cm2 was 90%.
In the case of `C[C@H](NC(=O)c1cc(Cl)cc(C(F)(F)F)c1)c1ncnn1-c1ncc(C(F)(F)F)s1` [Example I-085], in assay [1], the mortality at 100 g/ha stood at 100% and the mortality at 500 g/ha was found to be 100%. This compound came in with a mortality at 500 g/ha in assay [7] of 100%. Further, in assay [4], the pest or weed control at 80 µg/disc, 250 g/ha stood at 100% and the pest or weed control at 160 µg/disc, 500 g/ha worked out at 100%. In assay [5], this compound had a mortality at 100 ppm of 100%. Further, the pest or weed control at 5 µg/cm2 in assay [9] is 100%.
As for `C[C@H](NC(=O)c1cc(C(F)(F)F)cc(C(F)(F)F)c1)c1ncnn1-c1ncc(Cl)cc1F` [Example I-088], in assay [1], the mortality at 100 g/ha came out at 100% and the mortality at 500 g/ha worked out at 100%. In addition, in [10], the mortality at 500 g/ha came to 90%. In [7], this compound yielded a mortality at 100 g/ha of 90% and a mortality at 500 g/ha of 100%. In [4], the pest or weed control at 80 µg/disc, 250 g/ha came out at 100% and the pest or weed control at 160 µg/disc, 500 g/ha stood at 100%. This compound displayed a mortality at 100 ppm in assay [5] of 100%. The pest or weed control at 5 µg/cm2 in assay [9] was 100%.
Take `C[C@H](NC(=O)c1cc(Cl)cc(OC(F)(F)F)c1)c1ncnn1-c1ccc([N+](=O)[O-])cn1` [Example I-089]: the mortality at 100 g/ha in assay [1] came out at 100%; in assay [10] (100 g/ha), 90%; in [7], 90%. Also, the mortality at 500 g/ha in assay [1] turned out to be 100%; in [10] it was 90%; in [7], 100%. The pest or weed control at 80 µg/disc, 250 g/ha in assay [4] amounted to 100%. Also, the pest or weed control at 160 µg/disc, 500 g/ha in [4] came out at 100%. Besides, in assay [5], the mortality at 100 ppm came out at 100%. In assay [8], this compound showed a mortality at 4 ppm of 90%. Also, the pest or weed control at 5 µg/cm2 in assay [9] was determined as 100%.

Values taken from patent US12171229B2, “Heteroaryl-triazole and heteroaryl-tetrazole compounds as pesticides” (BAYER AKTIENGESELLSCHAFT, priority 2018, dated 2024).
